# Experimental data as given in patent publication US9592214B2, “Compounds for the treatment of autism in a baby child” (INSERM (INSTITUT NATIONAL DE LA SANTE ET DE LA RECHERCHE …, priority 2010, dated 2017).
# Key:
# [1] = system: Valproate rat model of autism; assay: In vivo EEG recordings in the CA3 area of hippocampus of head-restrained rats; conditions: for Integral power spectra of EEG recordings, mean ± S.E.M.: VPA rats with maternal BUM pretreatment, P13-15
# Protocol: (§1) Time-mated female Wistar rats at gestational day E7-8 were housed under standard laboratory conditions. The in utero valproic acid (VPA) rodent model of autism spectrum disorders has been previously described in detail. Briefly, the sodium salt of VPA (Sigma-Aldrich) was dissolved in physiological saline solution to a concentration of 300 mg/ml. Pregnant rats received a single intra-peritoneal dose of 600 mg/kg on gestational day 12 (E12). The control dams received a single similar volume injection of saline at the same gestational time-point. Dams were housed individually and allowed to raise their own litters. The offspring were used for experiments on embryonic day 20 (E20) and postnatal (P) days 0, 2, 4, 7, 15 and 30 (after being weaned at P23). Experiments were carried out on offspring of either sex.
# Head-fixed rat pups of age P13-P15 were prepared for extracellular recording under isoflurane anesthesia. The skin and periosteum were removed from the skull, which was then covered by glue and dental cement except for a 4-9 mm^2 window above the somatosensory cortex from one or two hemispheres for the silicon probe penetration (4.0-4.2 mm lateral to midline and 2.2-2.5 mm caudal to bregma) and for the reference electrode (1.0-1.5 mm lateral to midline and 6.0-6.5 mm caudal to bregma). The rat was positioned in the stereotaxic apparatus. A 1 mm-diameter burr hole was drilled in the skull; the dura was cut and removed. Recordings were made 1 h after recovery from anesthesia. Pups were kept restrained for <3 h and were closely monitored for signs of stress and to ensure that they spent a normal proportion of their time sleeping. The outside temperature was maintained between 35 and 36° C. The animals were kept in low-light conditions throughout all experiments. 16-site linear silicone probe (NeuroNexus Technologies) coupled to a direct-current amplifier (Molecular Devices) and dunked previously in fluorescent dye (DiI, Invitrogen) was slowly penetrated via the hole at […] depth under the angle 30° in the coronal plane. EEGs were recorded during 2 hours, using a 16-channel amplifier (A-M System, Inc.) and digitized at 5 kHz using Axoscope software (Molecular Deviced). Recordings were amplified and high-pass filtered at 0.3 Hz in Axoscope. Silicone probe location was verified postmortem via dye localization. To quantify the frequency band integral power the traces were band-pass filtered at frequency bands […]) θ-(4-7 Hz), α-(7-12 Hz), β-(12-25 Hz), Low γ-(25-60 Hz), High γ-(60-120 Hz) and Fast oscillations-(120-500 Hz)). Fast Fourier Transform (FFT) was applied with Clampfit (Molecular Devices). Integrals of FFT power spectra were taken and averaged with OriginPro (OriginLab Corporation).
# (§2) Bumetanide (10 μM), Oxytocin (1 μM) and Isoguvacine (2 μM) were directly added to the perfusion solutions. Bumetanide pretreatment (2-2.5 mg/kg) was given to the dams in drinking water. All drugs used were purchased from Sigma. SSR126768A (Sanofi-Synthelabo) pretreatment (1 mg/kg) was given to the dams in drinking water.
# [2] = system: hippocampal CA3 pyramidal cells; assay: Acute application of bumetanide to hippocampal slices: DFGABA from cell-attached single GABAA channel recordings; assay type: cell-based, rat; conditions: acute bumetanide 10 μM
# Protocol: Time-mated female Wistar rats at gestational day E7-8 were housed under standard laboratory conditions. […] The offspring were used for experiments on embryonic day 20 (E20) and postnatal (P) days 0, 2, 4, 7, 15 and 30 (after being weaned at P23). Experiments were carried out on offspring of either sex.
# Hippocampal slices (300-500 nm thick) were prepared using a Microm tissue slicer (International GmbH, Germany) as described previously (Tyzio et al. 2006 Science 314, 1788; Tyzio et al, 2008, Eur J. Neurosci. 27(10):2515-28). Slices were kept in oxygenated (95% O2/5% CO2) artificial cerebrospinal fluid (ACSF) of the following composition (in mM): NaCl 126, KCl 3.5, CaCl2 2.0, MgCl2 1.3, NaHCO3 25, NaH2PO4 1.2 and glucose 11 (pH 7.4) at room temperature (20-22° C.) at least 1 hour before use.
# For recordings, slices were placed into a conventional fully submerged chamber superfused with ACSF at a rate of 2-3 ml/min at room temperature. Patch clamp recordings from visually identified CA3 pyramidal cells in cell-attached configuration were performed using EPC-10 amplifier (HEKA Elektronik Dr. Schulze GmbH, Lambrecht/Pfalz, Germany). Patch pipette solution for recordings of single GABAA channels contained (in mM): NaCl 120, KCl 5, TEA-Cl 20, 4-aminopyridine 5, CaCl2 0.1, MgCl2 10, glucose 10, Hepes-NaOH 10 buffered to pH 7.2-7.3 and GABA 2 μM. Analysis of currents through single channels and current-voltage relationships were performed using Clampfit 9.2 (Axon Instruments, Union City, Calif.). Recordings were digitized (10 kHz) online with Digidata-1200 interface card (Axon Instruments, Union City, Calif.) and analyzed offline with Axon package, MiniAnalysis (S (Synaptsoft, Decatur, Ga.), and Origin (Microcal Software, Northampton, Mass.).
# Bumetanide (10 μM), Oxytocin (1 μM) and Isoguvacine (2 μM) were directly added to the perfusion solutions. […] All drugs used were purchased from Sigma.
# [3] = system: Valproate rat model of autism; assay: Isolation-induced ultrasonic vocalizations; assay type: in vivo
# Protocol: as §1
# To induce ultrasonic vocalizations, […], and were placed into an isolation box (23×28×18 cm) located inside a sound attenuating isolation cubicle (54×57×41 cm; Coulbourn Instruments, Allentown, Pa., USA), and evaluated for ultrasonic vocalizations during a three minutes test. An ultrasound microphone (Avisoft UltraSoundGate Condenser microphone capsule CM16/CMPA, Avisoft Bioacoustics, Berlin, Germany), placed in the roof of the box, was sensitive to frequencies of 10 to 250 kHz. Vocalizations were recorded using the Avisoft Recorder software (version 4.2) with a sampling rate of 250 kHz in 16 bit format. For acoustical analysis, recordings were transferred to SASLab Pro (version 5.2; Avisoft Bioacoustics) and a fast Fourier transformation was conducted (512 FFT-length, 100% frame, Hamming window and 75% time window overlap). The accuracy of call detection was verified manually by an educated user. A Pearson correlation coefficient was computed to assess the relationship between Automatic and Manual analysis. There was 0.99 correlation between the two variables.
# as §2
# hippocampal slices = assay: Effects of isoguvacine on spike frequency, extracellular field potential recordings in hippocampal slices; assay type: cell-based, rat; conditions: for Effects of isoguvacine on frequency of spikes in extracellular recordings (% of control), mean ± S.E.: VPA rats with maternal bumetanide pretreatment, P15
# Protocol: Experiments were performed on fetuses and neonatal rat pups. We removed E20 rats from deeply anesthetized dams [subcutaneous injection of a mixture of xylazine (Rompun 2%; used at 0.05%) and ketamine (Imalgene 1000 used at 50 g/l)]. Hippocampal slices ([…] thick) were prepared using a Microm tissue slicer (International GmbH, Germany) as described previously (Tyzio et al. 2006 Science 314, 1788; Tyzio et al, 2008, Eur J. Neurosci. 27(10):2515-28). Slices were kept in oxygenated (95% O2/5% CO2) artificial cerebrospinal fluid (ACSF) of the following composition (in mM): NaCl 126, KCl 3.5, CaCl2 2.0, MgCl2 1.3, NaHCO3 25, NaH2PO4 1.2 and glucose 11 (pH 7.4) at room temperature (20-22° C.) at least 1 hour before use.
# Extracellular field potentials and multi-unit activity (MUA) recordings Recording were made in the hippocampal slices using tungsten wire electrodes (diameter: 50 μm, California Fine Wire, Grover Beach, Calif.) and a low-noise multichannel DAM-8A amplifiers (WPI, GB; […]; gain: ×1000). The signals were digitized using an analogue-to-digital converter (Digidata 1440A, Axon Instruments, USA). pCLAMP 10.1, Clampfit 10.1 (Axon Instruments, USA), MiniAnalysis 6.03 (Synaptosoft, Decatur, Calif.) and Origin 7.5 (Microcal Software, USA) programs were used for the acquisition and analysis of the synaptic activities. Sampling interval per signal was 100 microseconds (10 kHz).
# as §2
# [4] = P4 VPA rats + maternal BUM pretreatment
# [5] = P4 control rats + maternal BUM pretreatment
structure (smiles),measurement,setting,value
CCCCNc1cc(C(=O)O)cc(S(N)(=O)=O)c1Oc1ccccc1 [bumetanide],EEG oscillatory hyperactivity and power of network oscillations,"[1]; P13-P15 VPA offspring, maternal bumetanide pretreatment, result in words",abolished hyperactivity and restored physiological values
same,"Integral power spectra of EEG recordings, mean ± S.E.M.",[1]; frequency band 0.5-4 Hz,88.53 ± 27.57
same,"Integral power spectra of EEG recordings, mean ± S.E.M.",[1]; frequency band 4-7 Hz,15.40 ± 4.25
same,"Integral power spectra of EEG recordings, mean ± S.E.M.",[1]; frequency band 7-12 Hz,7.09 ± 1.56
same,"Integral power spectra of EEG recordings, mean ± S.E.M.",[1]; frequency band 12-25 Hz,6.35 ± 1.52
same,"Integral power spectra of EEG recordings, mean ± S.E.M.",[1]; frequency band 25-60 Hz,0.97 ± 0.20
same,"Integral power spectra of EEG recordings, mean ± S.E.M.",[1]; frequency band 60-120 Hz,0.32 ± 0.06
same,"Integral power spectra of EEG recordings, mean ± S.E.M.",[1]; frequency band 120-500 Hz,1.18 ± 0.19
same,[Cl−]i,"[2]; P0 VPA neurons, result in words",significantly decreased
same,"DFGABA mV), mean±",[2]; P0 VPA rats,−2.4 ± 1.2 (n = 21) mV
same,"DFGABA mV), mean±",[2]; P0 control rats,−5.3 ± 0.7 (n = 17) mV
same,behavioral deficit (smaller number and shorter total duration of calls),"[3]; P4 VPA offspring, maternal bumetanide pretreatment, result in words",rescued this behavioral deficit
same,"Number of calls, isolation-induced USVs mean ± S.E.M",[3]; [4],56 ± 25 (n = 20)
same,"Total duration of calls, isolation-induced USVs mean ± S.E.M",[3]; [4],4 ± 2 (n = 20)
same,"Number of calls, isolation-induced USVs mean ± S.E.M",[3]; [5],62.6 ± 27.4 (n = 18)
same,"Total duration of calls, isolation-induced USVs mean ± S.E.M",[3]; [5],4.6 ± 2.3 (n = 18)
same,excitatory actions of the GABAAR agonist isoguvacine,"hippocampal slices; P15 VPA offspring, maternal bumetanide pretreatment, result in words",suppressed the excitatory actions
same,"Effects of isoguvacine on frequency of spikes in extracellular recordings (% of control), mean ± S.E.",hippocampal slices,82.8±10.7 % of control
same,"Effects of isoguvacine on frequency of spikes in extracellular recordings (% of control), mean ± S.E.",hippocampal slices; listed as BUM,"82.8 ± 10.7 (n = 9), P < 0.05 % of control"
